Tested on: 171881-019-R-J1-PDC multicell spheroid viability
Assay: Anticancer human tumor 171881-019-R-J1-PDC patient-derived invasive breast carcinoma cell line growth inhibition [IpAb]
Conditions: for IC50: curve of first compound; for viability, T/C: stronger effect = lower value
In short: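 Combinations with ipatasertib or abemaciclib were tested on tumour spheroids holding HUVEC (25%) and MSC (15%) alongside 60% malignant cells. Top concentration was at or near clinical Cmax (10 microM if undefined), descending in half-log steps.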

[1] = second compound 0.01 µM, first compound 0.0316 µM
[2] = second compound 0.01 µM, first compound 0.1 µM
[3] = second compound 0.0316 µM, first compound 0.0316 µM
[4] = second compound 0.0316 µM, first compound 0.1 µM
[5] = second compound 0.1 µM, first compound 0.0316 µM
[6] = second compound 0.1 µM, first compound 0.1 µM
[7] = second compound 0.316 µM, first compound 0.0316 µM
[8] = second compound 0.316 µM, first compound 0.1 µM
[9] = second compound 1 µM, first compound 0.0316 µM
[10] = second compound 1 µM, first compound 0.1 µM
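Also: spheroids exposed to the agents for seven days before readout.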

## Cn1ncc(Cl)c1-c1cc(C(=O)NC(CN)Cc2cccc(F)c2)sc1Cl (stereo not given) + CCN1CCN(Cc2ccc(Nc3ncc(F)c(-c4cc(F)c5nc(C)n(C(C)C)c5c4)n3)nc2)CC1
Second compound 0.01 µM
  IC50: 183 nM
Second compound 0.0316 µM
  IC50: 176 nM
Second compound 0.1 µM
  IC50: 167 nM
Second compound 0.316 µM
  IC50: 207 nM
Second compound 1 µM
  IC50: 345 nM
[1]
  viability, T/C: 116%
[2]
  viability, T/C: 69.1%
Second compound 0.01 µM, first compound 0.316 µM
  viability, T/C: 31.4%
Second compound 0.01 µM, first compound 1 µM
  viability, T/C: 16.8%
Second compound 0.01 µM, first compound 3.16 µM
  viability, T/C: 3.11%
Second compound 0.01 µM, first compound 10 µM
  viability, T/C: 0.48%
[3]
  viability, T/C: 116%
[4]
  viability, T/C: 67.4%
Second compound 0.0316 µM, first compound 0.316 µM
  viability, T/C: 31.1%
Second compound 0.0316 µM, first compound 1 µM
  viability, T/C: 15.9%
Second compound 0.0316 µM, first compound 3.16 µM
  viability, T/C: 4.15%
Second compound 0.0316 µM, first compound 10 µM
  viability, T/C: 0.13%
[5]
  viability, T/C: 103%
[6]
  viability, T/C: 66.2%
Second compound 0.1 µM, first compound 0.316 µM
  viability, T/C: 28%
Second compound 0.1 µM, first compound 1 µM
  viability, T/C: 17.3%
Second compound 0.1 µM, first compound 3.16 µM
  viability, T/C: 3.84%
Second compound 0.1 µM, first compound 10 µM
  viability, T/C: 0.58%
[7]
  viability, T/C: 107%
[8]
  viability, T/C: 73.2%
Second compound 0.316 µM, first compound 0.316 µM
  viability, T/C: 34%
Second compound 0.316 µM, first compound 1 µM
  viability, T/C: 19.4%
Second compound 0.316 µM, first compound 3.16 µM
  viability, T/C: 4.04%
Second compound 0.316 µM, first compound 10 µM
  viability, T/C: 0.34%
[9]
  viability, T/C: 122%
[10]
  viability, T/C: 87.9%
Second compound 1 µM, first compound 0.316 µM
  viability, T/C: 50.1%
Second compound 1 µM, first compound 1 µM
  viability, T/C: 27.3%
Second compound 1 µM, first compound 3.16 µM
  viability, T/C: 8.61%
Second compound 1 µM, first compound 10 µM
  viability, T/C: 0.61%

## Cn1ncnc1[C@H]1c2n[nH]c(=O)c3cc(F)cc(c23)N[C@@H]1c1ccc(F)cc1 + CCN1CCN(Cc2ccc(Nc3ncc(F)c(-c4cc(F)c5nc(C)n(C(C)C)c5c4)n3)nc2)CC1
Second compound 0.01 µM
  IC50: > 100 nM
Second compound 0.0316 µM
  IC50: > 100 nM
Second compound 0.1 µM
  IC50: > 100 nM
Second compound 0.316 µM
  IC50: > 100 nM
Second compound 1 µM
  IC50: > 100 nM
Second compound 0.01 µM, first compound 0.000316 µM
  viability, T/C: 88.2%
Second compound 0.01 µM, first compound 0.001 µM
  viability, T/C: 99.7%
Second compound 0.01 µM, first compound 0.00316 µM
  viability, T/C: 86.9%
Second compound 0.01 µM, first compound 0.01 µM
  viability, T/C: 102%
[1]
  viability, T/C: 95.5%
[2]
  viability, T/C: 109%
Second compound 0.0316 µM, first compound 0.000316 µM
  viability, T/C: 109%
Second compound 0.0316 µM, first compound 0.001 µM
  viability, T/C: 96.2%
Second compound 0.0316 µM, first compound 0.00316 µM
  viability, T/C: 113%
Second compound 0.0316 µM, first compound 0.01 µM
  viability, T/C: 114%
[3]
  viability, T/C: 104%
[4]
  viability, T/C: 113%
Second compound 0.1 µM, first compound 0.000316 µM
  viability, T/C: 118%
Second compound 0.1 µM, first compound 0.001 µM
  viability, T/C: 118%
Second compound 0.1 µM, first compound 0.00316 µM
  viability, T/C: 115%
Second compound 0.1 µM, first compound 0.01 µM
  viability, T/C: 114%
[5]
  viability, T/C: 116%
[6]
  viability, T/C: 113%
Second compound 0.316 µM, first compound 0.000316 µM
  viability, T/C: 126%
Second compound 0.316 µM, first compound 0.001 µM
  viability, T/C: 132%
Second compound 0.316 µM, first compound 0.00316 µM
  viability, T/C: 124%
Second compound 0.316 µM, first compound 0.01 µM
  viability, T/C: 127%
[7]
  viability, T/C: 130%
[8]
  viability, T/C: 126%
Second compound 1 µM, first compound 0.000316 µM
  viability, T/C: 143%
Second compound 1 µM, first compound 0.001 µM
  viability, T/C: 141%
Second compound 1 µM, first compound 0.00316 µM
  viability, T/C: 140%
Second compound 1 µM, first compound 0.01 µM
  viability, T/C: 135%
[9]
  viability, T/C: 137%
[10]
  viability, T/C: 138%
